Reference: ChEMBL document CHEMBL1201862, “PubChem BioAssay data set” (2004)
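Five concentrations, 48 hours, 96-well plates. Abbreviation: GI50, concentration required for 50% inhibition of growth.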 Active and inactive are the calls of the source. Cut-off read from the data, not from the text of the source: active = GI50 up to about 1.1 µM and inactive = higher. Non-standard residues stand in square brackets, D forms with d. Residues, ends and D or L forms follow the SMILES beside them. ξ: configuration not given here. *: point of attachment. ξF = NC(Cc1ccccc1)C(=O)O; Cbz = O=C(OCc1ccccc1)*; Aib = CC(C)(N)C(=O)O

Experiments:
Experiment in all cases: DTP human tumour cell line panel, 48 h
SF-295 = tested on: SF-295
LOX IMVI = tested on: LOX IMVI
EKVX = tested on: EKVX
SF-539 = tested on: SF-539
RXF 393 = tested on: RXF 393
A498 = tested on: A498
SK-MEL-2 = tested on: SK-MEL-2
NCI-H23 = tested on: NCI-H23
HCT-116 = tested on: HCT-116
CAKI-1 = tested on: CAKI-1
SK-MEL-5 = tested on: SK-MEL-5
SW-620 = tested on: SW-620
ACHN = tested on: ACHN
PC-3 = tested on: PC-3
CCRF-CEM = tested on: CCRF-CEM
HL-60 = tested on: HL-60
UO-31 = tested on: UO-31
HCT-15 = tested on: HCT-15
HT-29 = tested on: HT-29
Hs-578T = tested on: Hs-578T
NCI-H522 = tested on: NCI-H522
NCI-H226 = tested on: NCI-H226
SK-MEL-28 = tested on: SK-MEL-28
RPMI-8226 = tested on: RPMI-8226
KM12 = tested on: KM12
OVCAR-8 = tested on: OVCAR-8
A549 = tested on: A549
TK-10 = tested on: TK-10
SK-OV-3 = tested on: SK-OV-3
HCC 2998 = tested on: HCC 2998
U-251 = tested on: U-251
SNB-75 = tested on: SNB-75
IGROV-1 = tested on: IGROV-1
COLO 205 = tested on: COLO 205
OVCAR-3 = tested on: OVCAR-3
SNB-19 = tested on: SNB-19
OVCAR-5 = tested on: OVCAR-5
K562 = tested on: K562
MDA-MB-435 = tested on: MDA-MB-435
SN12C = tested on: SN12C
M14 = tested on: M14
NCI/ADR-RES = tested on: NCI/ADR-RES
UACC-62 = tested on: UACC-62
OVCAR-4 = tested on: OVCAR-4
NCI-H460 = tested on: NCI-H460
HOP-62 = tested on: HOP-62
MOLT-4 = tested on: MOLT-4
MDA-MB-231 = tested on: MDA-MB-231
Malme-3M = tested on: Malme-3M
T47D = tested on: T47D
SR = tested on: SR
DU-145 = tested on: DU-145
SF-268 = tested on: SF-268
MCF7 = tested on: MCF7
HOP-92 = tested on: HOP-92
UACC-257 = tested on: UACC-257
MDA-N = tested on: MDA-N

Measured: GI50

COc1ccc(N2C(=O)C(=O)N(C)C2=O)c2ccccc12
inactive: SF-295 > 10 µM | LOX IMVI > 10 µM | EKVX > 10 µM | SF-539 > 10 µM | RXF 393 > 10 µM | A498 > 10 µM | SK-MEL-2 > 10 µM | NCI-H23 > 10 µM | HCT-116 > 10 µM | CAKI-1 > 10 µM | SK-MEL-5 > 10 µM | SW-620 > 10 µM | ACHN > 10 µM | PC-3 > 10 µM | CCRF-CEM > 10 µM | HL-60 > 10 µM | UO-31 > 10 µM | HT-29 > 10 µM | Hs-578T > 10 µM | NCI-H522 > 10 µM | NCI-H226 > 10 µM | SK-MEL-28 > 10 µM | RPMI-8226 > 10 µM | KM12 > 10 µM | OVCAR-8 > 10 µM | A549 > 10 µM | TK-10 > 10 µM | SK-OV-3 > 10 µM | HCC 2998 > 10 µM | U-251 > 10 µM | SNB-75 > 10 µM | IGROV-1 > 10 µM | COLO 205 > 10 µM | OVCAR-3 > 10 µM | SNB-19 > 10 µM | OVCAR-5 > 10 µM | K562 > 10 µM | MDA-MB-435 > 10 µM | SN12C > 10 µM | M14 > 10 µM | NCI/ADR-RES > 10 µM | UACC-62 > 10 µM | OVCAR-4 > 10 µM | NCI-H460 > 10 µM | HOP-62 > 10 µM | MOLT-4 > 10 µM | MDA-MB-231 > 10 µM | Malme-3M > 10 µM | T47D > 10 µM | SR > 10 µM | DU-145 > 10 µM | SF-268 > 10 µM | MCF7 > 10 µM
> 10 µM: HCT-15

COc1cc2c(cc1OCCOS(C)(=O)=O)N=C[C@@H]1CCCN1C2=O
inactive: SF-295 23.3 µM | EKVX 32.7 µM | RXF 393 29.7 µM | SK-MEL-2 29.4 µM | HL-60 26.9 µM | HT-29 36.8 µM | Hs-578T 27.5 µM | SK-MEL-28 23.8 µM | KM12 33.9 µM | OVCAR-8 32.1 µM | A549 > 100 µM | SK-OV-3 > 100 µM | HCC 2998 30.7 µM | SNB-75 54.1 µM | IGROV-1 27.7 µM | COLO 205 24.1 µM | SNB-19 45.3 µM | MDA-MB-435 20.3 µM | SN12C 26 µM | OVCAR-4 22.2 µM | NCI-H460 97.7 µM | MOLT-4 21.9 µM | HOP-92 21.4 µM | T47D 40.7 µM | DU-145 27.3 µM | SF-268 70.1 µM | MCF7 39 µM

CCOC(=O)CNC(=O)C(Cc1ccccc1)NC(=O)C(C)(C)NC(=O)OCc1ccccc1 (stereo not drawn) (Cbz-[Aib]-[ξF]-Gly-OEt)
> 100 µM: HCT-15
inactive: SF-295 > 100 µM | LOX IMVI 49.4 µM | EKVX > 100 µM | A498 > 100 µM | HCT-116 > 100 µM | CAKI-1 > 100 µM | SK-MEL-5 64.1 µM | SW-620 > 100 µM | ACHN > 100 µM | PC-3 > 100 µM | CCRF-CEM > 100 µM | HL-60 32.9 µM | UO-31 > 100 µM | HT-29 > 100 µM | NCI-H522 29.8 µM | UACC-257 33.1 µM | SK-MEL-28 17.9 µM | RPMI-8226 32.6 µM | OVCAR-8 > 100 µM | A549 > 100 µM | TK-10 > 100 µM | HCC 2998 43.5 µM | U-251 > 100 µM | IGROV-1 > 100 µM | COLO 205 93.1 µM | OVCAR-3 21.5 µM | SNB-19 > 100 µM | OVCAR-5 > 100 µM | K562 33.1 µM | MDA-MB-435 67.3 µM | M14 37.7 µM | NCI/ADR-RES > 100 µM | UACC-62 19.6 µM | OVCAR-4 > 100 µM | NCI-H460 > 10 µM | HOP-62 > 100 µM | MOLT-4 29.4 µM | MDA-MB-231 > 100 µM | HOP-92 > 100 µM | Malme-3M 18.6 µM | T47D 77.8 µM | MDA-N > 100 µM | SR 30.3 µM | DU-145 28.6 µM | SF-268 > 100 µM | MCF7 > 100 µM
